Legend:
Format in all cases: cell-based, human
SF-268 = test: NCI 60 cell line screen (SRB), CNS Cancer
Excerpt: (§1) The operation of this screen utilizes 60 different human tumor cell lines, representing leukemia, melanoma and cancers of the lung, colon, brain, ovary, breast, prostate, and kidney. The aim is to prioritize for further evaluation, synthetic compounds or natural product samples showing selective growth inhibition or cell killing of particular tumor cell lines. This screen is unique in that the complexity of a 60 cell line dose response produced by a given compound results in a biological response pattern which can be utilized in pattern recognition algorithms. Using these algorithms, it is possible to assign a putative mechanism of action to a test compound, or to determine that the response pattern is unique and not similar to that of any of the standard prototype compounds included in the NCl database (see DTP Overview tab). In addition, following characterization of various cellular molecular targets in the 60 cell lines, it may be possible to select compounds most likely to interact with a specific molecular target.
(§2) The human tumor cell lines of the cancer screening panel are grown in RPMI 1640 medium containing 5% fetal bovine serum and 2 mM L-glutamine. For a typical screening experiment, cells are inoculated into 96 well microtiter plates in 100 μL at plating densities ranging from 5,000 to 40,000 cells/well depending on the doubling time of individual cell lines. After cell inoculation, the microtiter plates are incubated at 37° C., 5% CO2, 95% air and 100% relative humidity for 24 h prior to addition of experimental drugs.
(§3) After 24 h, two plates of each cell line are fixed in situ with TCA, to represent a measurement of the cell population for each cell line at the time of drug addition (Tz). Experimental drugs are solubilized in dimethyl sulfoxide at 400-fold the desired final maximum test concentration and stored frozen prior to use. At the time of drug addition, an aliquot of frozen concentrate is thawed and diluted to twice the desired final maximum test concentration with complete medium containing 50 μg/ml gentamicin. Additional four, 10-fold or ½ log serial dilutions are made to provide a total of five drug concentrations plus control. Aliquots of 100 μl of these different drug dilutions are added to the appropriate microtiter wells already containing 100 μl of medium, resulting in the required final drug concentrations.
(§4) Following drug addition, the plates are incubated for an additional 48 h at 37° C., 5% CO2, 95% air, and 100% relative humidity. For adherent cells, the assay is terminated by the addition of cold TCA. Cells are fixed in situ by the gentle addition of 50 μl of cold 50% (w/v) TCA (final concentration, 10% TCA) and incubated for 60 minutes at 4° C. The supernatant is discarded, and the plates are washed five times with tap water and air dried. Sulforhodamine B (SRB) solution (100 μl) at 0.4% (w/v) in 1% acetic acid is added to each well, and plates are incubated for 10 minutes at room temperature. After staining, unbound dye is removed by washing five times with 1% acetic acid and the plates are air dried. Bound stain is subsequently solubilized with 10 mM trizma base, and the absorbance is read on an automated plate reader at a wavelength of 515 nm. For suspension cells, the methodology is the same except that the assay is terminated by fixing settled cells at the bottom of the wells by gently adding 50 μl of 80% TCA (final concentration, 16% TCA). Using the seven absorbance measurements [time zero, (Tz), control growth, (C), and test growth in the presence of drug at the five concentration levels (Ti)], the percentage growth is calculated at each of the drug concentrations levels. Percentage growth inhibition is calculated as: [(Ti−Tz)/(C−Tz)]×100 for concentrations for which Ti>/=Tz [(Ti−Tz)/Tz]×100 for concentrations for which Ti<Tz.
(§5) Three dose response parameters are calculated for each experimental agent. […]

SF-295 = test: NCI 60 cell line screen (SRB), CNS Cancer
Excerpt: as §1, §2, §3, §4, §5

SNB-19 = test: NCI 60 cell line screen (SRB), CNS Cancer
Excerpt: as §1, §2, §3, §4, §5

SNB-75 = test: NCI 60 cell line screen (SRB), CNS Cancer
Excerpt: as §1, §2, §3, §4, §5

U251 = test: NCI 60 cell line screen (SRB), CNS Cancer
Excerpt: as §1, §2, §3, §4, §5

SK-MEL-28 = test: NCI 60 cell line screen (SRB), Melanoma
Excerpt: as §1, §2, §3, §4, §5

SK-MEL-2 = test: NCI 60 cell line screen (SRB), Melanoma
Excerpt: as §1, §2, §3, §4, §5

SK-MEL-5 = test: NCI 60 cell line screen (SRB), Melanoma
Excerpt: as §1, §2, §3, §4, §5

UACC-62 = test: NCI 60 cell line screen (SRB), Melanoma
Excerpt: as §1, §2, §3, §4, §5

## COc1cccc(CCNC(=O)CC(c2ccccc2)(c2ccccc2)c2ccccc2)c1 [Compound Z3]
SF-268; SF-268
  GI50: 15 µM
  TGI: >1.00E−04
SF-268; SF-268, Log10 Concentration −4.0
  Percent Growth: 38%
SF-268; SF-268, Log10 Concentration −5.0
  Percent Growth: 53%
SF-268; SF-268, Log10 Concentration −6.0
  Percent Growth: 87%
SF-268; SF-268, Log10 Concentration −7.0
  Percent Growth: 97%
SF-268; SF-268, Log10 Concentration −8.0
  Percent Growth: 90%
SF-268; SF-268, read-out: LC50 (the source's name)
  CC50: > 100 µM
SF-295; SF-295
  GI50: 4.36 µM
  TGI: >1.00E−04
SF-295; SF-295, Log10 Concentration −4.0
  Percent Growth: 15%
SF-295; SF-295, Log10 Concentration −5.0
  Percent Growth: 27%
SF-295; SF-295, Log10 Concentration −6.0
  Percent Growth: 91%
SF-295; SF-295, Log10 Concentration −7.0
  Percent Growth: 113%
SF-295; SF-295, Log10 Concentration −8.0
  Percent Growth: 100%
SF-295; SF-295, read-out: LC50 (the source's name)
  CC50: > 100 µM
SNB-19; SNB-19
  GI50: 90.1 µM
  TGI: >1.00E−04
SNB-19; SNB-19, Log10 Concentration −4.0
  Percent Growth: 48%
SNB-19; SNB-19, Log10 Concentration −5.0
  Percent Growth: 92%
SNB-19; SNB-19, Log10 Concentration −6.0
  Percent Growth: 92%
SNB-19; SNB-19, Log10 Concentration −7.0
  Percent Growth: 107%
SNB-19; SNB-19, Log10 Concentration −8.0
  Percent Growth: 97%
SNB-19; SNB-19, read-out: LC50 (the source's name)
  CC50: > 100 µM
SNB-75; SNB-75
  GI50: > 100 µM
  TGI: >1.00E−04
SNB-75; SNB-75, Log10 Concentration −4.0
  Percent Growth: 96%
SNB-75; SNB-75, Log10 Concentration −5.0
  Percent Growth: 118%
SNB-75; SNB-75, Log10 Concentration −6.0
  Percent Growth: 113%
SNB-75; SNB-75, Log10 Concentration −7.0
  Percent Growth: 117%
SNB-75; SNB-75, Log10 Concentration −8.0
  Percent Growth: 94%
SNB-75; SNB-75, read-out: LC50 (the source's name)
  CC50: > 100 µM
U251; U251
  GI50: 4.85 µM
  TGI: 5.56E−05
U251; U251, Log10 Concentration −4.0
  Percent Growth: −10%
U251; U251, Log10 Concentration −5.0
  Percent Growth: 29%
U251; U251, Log10 Concentration −6.0
  Percent Growth: 96%
U251; U251, Log10 Concentration −7.0
  Percent Growth: 107%
U251; U251, Log10 Concentration −8.0
  Percent Growth: 99%
U251; U251, read-out: LC50 (the source's name)
  CC50: > 100 µM
SK-MEL-28; SK-MEL-28
  GI50: > 100 µM
  TGI: >1.00E−04
SK-MEL-28; SK-MEL-28, Log10 Concentration −4.0
  Percent Growth: 94%
SK-MEL-28; SK-MEL-28, Log10 Concentration −5.0
  Percent Growth: 103%
SK-MEL-28; SK-MEL-28, Log10 Concentration −6.0
  Percent Growth: 96%
SK-MEL-28; SK-MEL-28, Log10 Concentration −7.0
  Percent Growth: 105%
SK-MEL-28; SK-MEL-28, Log10 Concentration −8.0
  Percent Growth: 84%
SK-MEL-28; SK-MEL-28, read-out: LC50 (the source's name)
  CC50: > 100 µM
SK-MEL-2; SK-MEL-2
  GI50: 4.41 µM
  TGI: >1.00E−04
SK-MEL-2; SK-MEL-2, Log10 Concentration −4.0
  Percent Growth: 18%
SK-MEL-2; SK-MEL-2, Log10 Concentration −5.0
  Percent Growth: 24%
SK-MEL-2; SK-MEL-2, Log10 Concentration −6.0
  Percent Growth: 97%
SK-MEL-2; SK-MEL-2, Log10 Concentration −7.0
  Percent Growth: 85%
SK-MEL-2; SK-MEL-2, Log10 Concentration −8.0
  Percent Growth: 80%
SK-MEL-2; SK-MEL-2, read-out: LC50 (the source's name)
  CC50: > 100 µM
SK-MEL-5; SK-MEL-5
  GI50: 4.84 µM
  TGI: >1.00E−04
SK-MEL-5; SK-MEL-5, Log10 Concentration −4.0
  Percent Growth: 15%
SK-MEL-5; SK-MEL-5, Log10 Concentration −5.0
  Percent Growth: 21%
SK-MEL-5; SK-MEL-5, Log10 Concentration −6.0
  Percent Growth: 113%
SK-MEL-5; SK-MEL-5, Log10 Concentration −7.0
  Percent Growth: 112%
SK-MEL-5; SK-MEL-5, Log10 Concentration −8.0
  Percent Growth: 80%
SK-MEL-5; SK-MEL-5, read-out: LC50 (the source's name)
  CC50: > 100 µM
UACC-62; UACC-62
  GI50: 0.613 µM
  TGI: >1.00E−04
UACC-62; UACC-62, Log10 Concentration −4.0
  Percent Growth: 22%
UACC-62; UACC-62, Log10 Concentration −5.0
  Percent Growth: 14%
UACC-62; UACC-62, Log10 Concentration −6.0
  Percent Growth: 41%
UACC-62; UACC-62, Log10 Concentration −7.0
  Percent Growth: 83%
UACC-62; UACC-62, Log10 Concentration −8.0
  Percent Growth: 94%
UACC-62; UACC-62, read-out: LC50 (the source's name)
  CC50: > 100 µM

Source: patent US7632972B2, “Compounds and methods for treatment of cancer and modulation of programmed cell death for melanoma and other cancer cells” (The Board of Trustees of the University of Illionis, priority 2003, dated 2009)
